Test results: patent publication US10662229B2, “Spider venom peptides and methods of use for modulating sodium channels” (priority 2016, dated 2020)

How the values were obtained:
[1] = target: T1, hNav1.3 (Homo sapiens, UniProt Q9NY46); test: FLIPR membrane potential assay, hNav1.3; type: cell-based
T1 construct: host or cells: HEK293
Summary of the method: (§1)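 Stable HEK293 lines, one per hNav isoform; red membrane potential dye, 30 min, 37° C; FLIPR^TETRA read at 1 s intervals over 300 s post-agonist.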

[2] = target: T2, hNav1.4 (Homo sapiens, UniProt P35499); test: FLIPR membrane potential assay, hNav1.4; type: cell-based
T2 construct: host or cells: HEK293
Summary of the method: as §1

[3] = target: T3, hNav1.1 (Homo sapiens, UniProt P35498); test: Automated patch clamping (QPatch-16), hNav1.1; type: cell-based; settings: mean±SEM
T3 construct: host or cells: HEK293
Experimental: (§2) HEK293 cells stably expressing hNav1.1-1.7 or CHO cells stably expressing hNav1.8 (as described in Example 3 above) were cultured in a T-175 flask in selection antibiotic-free media at 37° C. Cells were grown to 70-80% confluence and harvested using Detachin (Bio-Scientific, NSW, Australia) at 37° C. for 2 min. Dissociated cells were then resuspended in Ex-Cell ACF CHO Medium with HEPES (25 mM; Sigma-Aldrich Co.) and allowed to recover on the QStirrer for 30 min.
(§3) The extracellular solution contained in mM: NaCl 145, KCl 4, CaCl2 2, MgCl2 1, HEPES 10 and glucose 10. The pH was adjusted to 7.4 with NaOH and osmolarity was adjusted with sucrose to 305 mOsm. The intracellular solution contained in mM: CsF 140, ethylene glycol tetraacetic acid (EGTA)/CsOH 1/5, HEPES 10 and NaCl 10. The pH was adjusted to 7.3 with CsOH and osmolarity adjusted with sucrose to 320 mOsm. […]
(§4) The current-voltage (IV) curve was constructed with a holding potential of −80 mV followed by a pre-pulse of −100 mV for 50 ms and a series of 50 ms step pulses that ranged from −80 to 50 mV in 5 mV increments before returning to a holding potential of −80 mV. Voltage-dependence of activation was determined as normalized Nav conductance (GNa) using: GNa=INa/(Vmemb−Vrev), where Vmemb is the membrane potential and Vrev is the reversal potential for each cell. […]

[4] = target: T4, hNav1.6 (Homo sapiens, UniProt Q9UQD0); test: Automated patch clamping (QPatch-16), hNav1.6; type: cell-based; settings: mean±SEM
T4 construct: host or cells: HEK293
Experimental: as §2, §3, §4

[5] = system: post-operative pain in mice; test: Post-operative pain (plantar incision); type: in vivo; settings: 24 h after incision
Experimental: For behavioural assessment adult male C57BL/6J mice aged 6-8 weeks were used. Animals were housed in groups of 3 or 4 per cage, under 12 h light-dark cycles and had standard rodent chow and water ad libitum.
Mechanical allodynia was assessed using an electronic von Frey apparatus (MouseMet Electronic von Frey, TopCat Metrology Ltd, United Kingdom). Mice were habituated in individual mouse runs for at least 5 min prior to testing. A soft-tipped 0.3 mm diameter flat-ended polypropylene probe was applied to the plantar surface of each hind paw with pressured applied at a force rise rate of ˜1 g/s. The force that elicited paw withdrawal was calculated using the MouseMet Software. The paw withdrawal force (PWF) was determined from the average of three tests, separated by at least 2 min.
To induce post-operative (post-surgical) pain, the plantar skin of the hind paw of mice was incised under light isoflurane (3%) anaesthesia. Briefly, a 7 mm longitudinal incision was made through the skin and fascia 3 mm from the proximal edge of the heel using a sterile surgical scalpel (#11). The underlying plantaris muscle was elevated and also incised longitudinally. The wound was closed with two silk sutures. Mechanical allodynia was assessed 24 h after the incisional injury.

[6] = target: T5, hERG (Homo sapiens, UniProt Q12809); test: hERG automated patch clamping in CHO cells; type: cell-based; settings: 100 nM
T5 construct: host or cells: CHO
Experimental: CHO cells stably expressing hERG (B'SYS GmbH, Witterswil, Switzerland) were cultured in Ham's F-12 medium containing 10% v/v FBS and selection antibiotics as recommended by the manufacturer. Cells were cultured and prepared as described in Example 4.
The extracellular solution contained in mM: NaCl 145, KCl 4, MgCl2 1, CaCl2 2, HEPES 10 and glucose 10. The pH was adjusted to 7.4 and osmolarity was 305 mOsm. The intracellular solution contained in mM; KCl 120, HEPES 10, CaCl2 5, MgCl2 1.7, K2ATP 4, EGTA 10.
The pH was adjusted to 7.3 and osmolarity was 292 mOsm.
Whole-cell patch-clamp experiments were performed on a QPatch-16 automated electrophysiology platform (as described in Example 4). hERG currents were elicited by a depolarization step of +40 mV from a holding potential of −80 mV for 5 s. hERG tail currents were elicited upon partial repolarization to −50 mV for 5 s. The interval of voltages pulses was 15 s.

[7] = Stability of Pnc1a in solutions (RP-HPLC/MS); type: physicochemical; settings: room temperature

T5 sequence (Q12809 whole entry): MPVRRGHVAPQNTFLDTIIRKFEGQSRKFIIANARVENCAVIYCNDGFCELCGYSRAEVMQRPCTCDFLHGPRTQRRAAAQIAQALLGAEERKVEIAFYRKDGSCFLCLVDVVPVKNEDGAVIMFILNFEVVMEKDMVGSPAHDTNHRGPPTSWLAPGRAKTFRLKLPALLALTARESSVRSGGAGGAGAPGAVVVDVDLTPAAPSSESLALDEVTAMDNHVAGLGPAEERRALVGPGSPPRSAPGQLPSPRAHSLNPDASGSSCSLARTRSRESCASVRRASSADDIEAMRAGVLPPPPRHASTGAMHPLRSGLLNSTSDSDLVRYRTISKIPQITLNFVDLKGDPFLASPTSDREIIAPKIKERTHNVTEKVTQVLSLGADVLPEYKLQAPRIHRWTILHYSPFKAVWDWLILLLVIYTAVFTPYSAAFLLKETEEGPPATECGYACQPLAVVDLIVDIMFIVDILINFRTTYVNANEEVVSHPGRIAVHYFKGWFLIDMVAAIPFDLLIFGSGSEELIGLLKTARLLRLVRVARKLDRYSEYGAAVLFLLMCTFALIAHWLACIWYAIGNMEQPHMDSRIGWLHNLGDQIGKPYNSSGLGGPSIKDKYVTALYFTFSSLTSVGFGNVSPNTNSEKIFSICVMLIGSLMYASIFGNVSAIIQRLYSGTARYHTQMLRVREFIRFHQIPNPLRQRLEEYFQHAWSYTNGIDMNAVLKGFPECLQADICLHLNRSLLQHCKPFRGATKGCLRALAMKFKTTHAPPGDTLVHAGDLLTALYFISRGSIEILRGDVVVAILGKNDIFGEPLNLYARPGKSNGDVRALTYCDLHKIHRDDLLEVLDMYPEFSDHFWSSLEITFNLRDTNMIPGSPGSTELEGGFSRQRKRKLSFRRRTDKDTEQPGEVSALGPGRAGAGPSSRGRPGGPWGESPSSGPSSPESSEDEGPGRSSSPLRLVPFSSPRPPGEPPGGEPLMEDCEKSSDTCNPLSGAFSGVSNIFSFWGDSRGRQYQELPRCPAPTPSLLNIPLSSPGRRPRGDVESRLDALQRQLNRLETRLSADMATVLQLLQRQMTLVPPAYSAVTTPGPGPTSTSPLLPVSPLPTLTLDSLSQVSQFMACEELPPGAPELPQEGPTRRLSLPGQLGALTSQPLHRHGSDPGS
T2 sequence (P35499 whole entry): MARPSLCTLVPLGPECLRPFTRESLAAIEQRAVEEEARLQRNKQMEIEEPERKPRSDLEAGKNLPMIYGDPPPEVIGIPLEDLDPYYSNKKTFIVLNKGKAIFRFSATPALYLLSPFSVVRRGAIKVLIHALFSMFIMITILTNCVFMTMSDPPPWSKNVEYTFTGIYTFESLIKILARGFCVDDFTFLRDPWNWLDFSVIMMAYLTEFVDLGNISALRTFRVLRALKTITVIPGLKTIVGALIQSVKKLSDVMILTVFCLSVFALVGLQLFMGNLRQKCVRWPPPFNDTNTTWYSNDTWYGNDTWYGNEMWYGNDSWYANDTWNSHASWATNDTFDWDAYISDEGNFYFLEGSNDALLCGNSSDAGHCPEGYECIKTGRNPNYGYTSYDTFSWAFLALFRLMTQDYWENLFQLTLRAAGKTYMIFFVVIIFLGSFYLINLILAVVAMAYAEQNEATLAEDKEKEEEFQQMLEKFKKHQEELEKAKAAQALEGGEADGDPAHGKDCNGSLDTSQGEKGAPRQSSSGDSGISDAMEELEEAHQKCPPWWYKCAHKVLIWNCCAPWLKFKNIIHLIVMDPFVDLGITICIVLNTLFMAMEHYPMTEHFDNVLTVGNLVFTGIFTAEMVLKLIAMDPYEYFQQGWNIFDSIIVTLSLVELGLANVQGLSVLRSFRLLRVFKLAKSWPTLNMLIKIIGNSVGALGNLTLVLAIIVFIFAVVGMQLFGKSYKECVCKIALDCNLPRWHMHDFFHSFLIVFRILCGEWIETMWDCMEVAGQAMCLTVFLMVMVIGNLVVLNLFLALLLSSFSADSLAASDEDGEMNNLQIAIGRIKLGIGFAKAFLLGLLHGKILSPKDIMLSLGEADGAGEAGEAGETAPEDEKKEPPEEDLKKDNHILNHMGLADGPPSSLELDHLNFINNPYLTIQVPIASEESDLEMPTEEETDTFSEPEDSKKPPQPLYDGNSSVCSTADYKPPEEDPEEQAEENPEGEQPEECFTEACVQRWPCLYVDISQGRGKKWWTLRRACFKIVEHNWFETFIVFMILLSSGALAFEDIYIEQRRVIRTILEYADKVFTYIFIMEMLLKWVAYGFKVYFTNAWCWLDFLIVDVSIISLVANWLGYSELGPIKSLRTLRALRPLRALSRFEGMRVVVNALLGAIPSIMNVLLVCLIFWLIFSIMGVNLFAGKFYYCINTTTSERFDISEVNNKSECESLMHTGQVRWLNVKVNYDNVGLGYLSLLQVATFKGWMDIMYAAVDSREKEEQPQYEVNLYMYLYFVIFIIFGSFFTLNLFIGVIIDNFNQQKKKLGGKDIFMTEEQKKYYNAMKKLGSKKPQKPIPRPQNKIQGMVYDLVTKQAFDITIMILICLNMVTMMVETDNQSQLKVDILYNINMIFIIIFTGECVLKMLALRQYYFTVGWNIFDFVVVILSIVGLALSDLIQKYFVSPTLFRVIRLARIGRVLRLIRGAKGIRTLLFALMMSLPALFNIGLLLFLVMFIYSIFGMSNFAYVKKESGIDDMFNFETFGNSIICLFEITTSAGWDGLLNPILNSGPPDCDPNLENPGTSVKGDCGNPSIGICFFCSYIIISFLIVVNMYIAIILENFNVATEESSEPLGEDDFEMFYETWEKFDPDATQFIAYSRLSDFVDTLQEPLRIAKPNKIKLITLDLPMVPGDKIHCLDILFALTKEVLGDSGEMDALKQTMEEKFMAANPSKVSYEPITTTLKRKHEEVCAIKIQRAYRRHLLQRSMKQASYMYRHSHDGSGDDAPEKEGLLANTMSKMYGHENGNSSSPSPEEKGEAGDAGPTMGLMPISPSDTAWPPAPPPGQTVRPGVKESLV
T1 sequence (Q9NY46 whole entry): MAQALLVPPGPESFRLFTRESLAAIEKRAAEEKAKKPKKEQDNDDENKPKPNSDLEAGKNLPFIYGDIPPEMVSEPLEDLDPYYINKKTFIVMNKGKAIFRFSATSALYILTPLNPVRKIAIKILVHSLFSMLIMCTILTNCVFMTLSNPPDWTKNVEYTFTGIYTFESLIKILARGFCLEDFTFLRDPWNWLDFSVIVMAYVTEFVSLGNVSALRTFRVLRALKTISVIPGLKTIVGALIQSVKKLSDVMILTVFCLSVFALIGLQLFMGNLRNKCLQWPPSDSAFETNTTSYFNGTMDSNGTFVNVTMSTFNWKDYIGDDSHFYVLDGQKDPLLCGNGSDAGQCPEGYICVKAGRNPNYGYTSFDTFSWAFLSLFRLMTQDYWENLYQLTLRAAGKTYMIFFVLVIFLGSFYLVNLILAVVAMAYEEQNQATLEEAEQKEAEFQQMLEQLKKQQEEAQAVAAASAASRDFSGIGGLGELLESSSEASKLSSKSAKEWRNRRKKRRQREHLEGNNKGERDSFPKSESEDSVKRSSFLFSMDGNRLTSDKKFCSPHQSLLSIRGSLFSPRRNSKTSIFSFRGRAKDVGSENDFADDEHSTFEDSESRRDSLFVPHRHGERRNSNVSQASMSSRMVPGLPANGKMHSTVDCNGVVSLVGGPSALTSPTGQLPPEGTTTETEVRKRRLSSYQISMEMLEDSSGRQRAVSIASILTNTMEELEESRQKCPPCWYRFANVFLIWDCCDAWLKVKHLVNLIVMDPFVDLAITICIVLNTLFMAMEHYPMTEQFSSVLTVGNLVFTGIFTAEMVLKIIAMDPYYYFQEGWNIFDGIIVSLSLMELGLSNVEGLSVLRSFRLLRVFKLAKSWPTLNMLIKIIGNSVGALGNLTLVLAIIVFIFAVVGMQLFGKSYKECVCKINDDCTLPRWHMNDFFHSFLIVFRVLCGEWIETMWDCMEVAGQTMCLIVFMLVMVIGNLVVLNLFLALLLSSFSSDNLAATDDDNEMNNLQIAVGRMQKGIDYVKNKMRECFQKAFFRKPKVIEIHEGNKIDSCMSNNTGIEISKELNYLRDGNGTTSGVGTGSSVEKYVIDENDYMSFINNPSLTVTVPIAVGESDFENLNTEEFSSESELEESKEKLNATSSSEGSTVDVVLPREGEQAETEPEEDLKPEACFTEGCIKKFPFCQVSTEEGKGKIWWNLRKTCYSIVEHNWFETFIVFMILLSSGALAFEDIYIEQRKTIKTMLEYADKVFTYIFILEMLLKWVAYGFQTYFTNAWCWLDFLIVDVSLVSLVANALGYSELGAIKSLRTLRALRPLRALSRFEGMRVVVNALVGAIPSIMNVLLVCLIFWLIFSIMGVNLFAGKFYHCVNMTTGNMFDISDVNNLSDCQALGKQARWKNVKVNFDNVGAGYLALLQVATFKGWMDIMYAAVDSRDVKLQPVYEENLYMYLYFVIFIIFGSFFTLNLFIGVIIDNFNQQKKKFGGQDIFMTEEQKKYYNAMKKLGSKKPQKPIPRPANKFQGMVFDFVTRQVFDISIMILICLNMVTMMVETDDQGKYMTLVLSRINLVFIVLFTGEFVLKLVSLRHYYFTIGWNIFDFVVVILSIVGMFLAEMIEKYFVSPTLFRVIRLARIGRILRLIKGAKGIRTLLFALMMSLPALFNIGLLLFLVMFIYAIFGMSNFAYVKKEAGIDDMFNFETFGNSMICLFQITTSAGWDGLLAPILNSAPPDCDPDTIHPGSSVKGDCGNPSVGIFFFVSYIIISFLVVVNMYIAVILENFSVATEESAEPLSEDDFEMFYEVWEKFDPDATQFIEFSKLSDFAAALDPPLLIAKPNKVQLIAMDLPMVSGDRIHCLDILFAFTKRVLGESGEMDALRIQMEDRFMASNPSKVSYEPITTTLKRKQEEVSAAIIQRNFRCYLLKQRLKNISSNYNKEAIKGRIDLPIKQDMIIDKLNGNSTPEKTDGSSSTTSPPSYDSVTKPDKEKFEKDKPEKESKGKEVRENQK

Q: For `CSCC[C@@H]1NC(=O)[C@H](Cc2ccc(O)cc2)NC(=O)[C@H](CCCNC(=N)N)NC(=O)[C@@H](NC(=O)[C@@H](N)CC(=O)O)CSSC[C@@H]2NC(=O)[C@@H]3CSSC[C@@H](C(=O)N[C@@H](C)C(=O)N[C@@H](Cc4c[nH]c5ccccc45)C(=O)N[C@@H](CC(=O)O)C(=O)N[C@@H](Cc4ccccc4)C(=O)N[C@H](C(=O)N[C@@H](Cc4ccccc4)C(=O)N[C@H](C(=O)O)[C@@H](C)O)[C@@H](C)O)NC(=O)[C@H](Cc4ccc(O)cc4)NC(=O)[C@H](CCCCN)NC(=O)[C@H](CCSC)NC(=O)[C@H](CCCCN)NC(=O)[C@H](CCCNC(=N)N)NC(=O)[C@H](CCCCN)NC(=O)[C@H](CSSC[C@H](NC(=O)[C@H](CC(=O)O)NC(=O)CNC(=O)[C@H](Cc4ccccc4)NC1=O)C(=O)N[C@@H](CCC(=O)O)C(=O)N[C@@H](CCCCN)C(=O)N[C@@H](CC(=O)O)C(=O)N[C@@H](CCC(=O)O)C(=O)N[C@@H](CC(=O)O)C(=O)N3)NC(=O)CNC(=O)[C@H](CC(C)C)NC(=O)[C@H](Cc1cnc[nH]1)NC(=O)[C@H](CCCCN)NC2=O` [Pnc1a], which IC50 [1] is on record?
A: 8.13 µM

Q: What about the IC50 [2] of the same compound?
A: 11.2 µM

Q: And the “pIC50 Nav1.1” value [3]?
A: 7.43±0.1 M

Q: And the “pIC50 Nav1.6” value [4]?
A: 6.89±0.1 M

Q: And the “mechanical threshold of the injured paw compared to vehicle” value ([5]; intraperitoneal 3 mg/kg)?
A: significantly increased

Q: What about the “mechanical threshold of the injured paw compared to vehicle” value ([5]; intraplantar 3 μM) of the same compound?
A: significantly increased

Q: And the “effect on hERG peak tail current” value [6]?
A: did not have a significant effect

Q: And the “hERG peak tail current” value ([6]; control 539±13 pA)?
A: 504±38 pA

Q: What about the “time after which no intact peptide remained” value ([7]; PBS pH 6.5, 100 μM) of the same compound?
A: 12 days

Q: And the “time after which no intact peptide remained” value ([7]; PBS/saline pH 5.7, 100 μM)?
A: 25 days

Q: What about the “stability over the 25 day period” value ([7]; bicarbonate buffered saline pH 5.7, 100 μM) of the same compound?
A: remained intact

Q: What about the “stability over the 25 day period” value ([7]; bicarbonate buffered saline pH 7.1, 100 μM) of the same compound?
A: remained intact

Q: What about the “stability over the 25 day period” value ([7]; saline pH 3, 100 μM) of the same compound?
A: remained intact
